Test results: patent US7078424B2, “N-linked sulfonamides of N-heterocyclic carboxylic acids or carboxylic acid isosteres” (GPI NIL Holdings, Inc., priority 1998, dated 2006)

System: dopaminergic neurons
Assay: MPTP model of Parkinson's Disease in mice (MPTP Neurodegenerative Model)
Type: in vivo
Settings: recovery of TH-stained dopaminergic neurons in striatum; male CD1 mice, MPTP 30 mg/kg i.p. 5 days; test compound 4 mg/kg s.c. concurrent with MPTP plus 5 further days; sacrificed at 18 days
Method: MPTP lesioning of dopaminergic neurons in mice is used as an animal model of Parkinson's Disease. Four week old male CD1 white mice are dosed i.p. with 30 mg/kg of MPTP for 5 days. Test compounds (4 mg/kg), or vehicle, are administered s.c. along with the MPTP for 5 days, as well as for an additional 5 days following cessation of MPTP treatment. At 18 days following MPTP treatment, the animals are sacrificed and the striata dissected and perfusion-fixed. Immunostaining is performed on saggital and coronal brain sections using anti-tyrosine hydroxylase […] to quantitate survival and recovery of dopaminergic neurons. In animals treated with MPTP and vehicle, a substantial loss of functional dopaminergic terminals is observed as compared to non-lesioned animals. Lesioned animals receiving test compounds show a significant recovery of TH-stained dopaminergic neurons. This model presents quantitation for the recovery of TH-positive dopaminergic neurons in the striatum of animals receiving the compounds of the present invention. […]
Percent striatal innervation density was quantitated is in brain sections with an anti-tyrosine hydroxylase immunoglobulin, which is indicative of functional dopaminergic neurons. […]

O=C(O)[C@@H]1CCCN1S(=O)(=O)Cc1ccccc1 [Compound A, (2S)-N-(benzylsulfonyl)-2-pyrrolidinecarboxylic Acid]
% Recovery: 24.4%
